Test results from US20240383882A1 (Ecstasy LLC, priority 2020, published 2024).
Like-named read-outs stand apart in the source and are kept apart here.

Test system: male C57BL/6 mice
Test: 55° C. warm-water tail-flick test (antinociception)
Assay type: in vivo
Conditions: for ED50: Mus musculus
Experimental: Antinociception was assessed using the 55° C. warm-water tail-flick test. The latency to the first sign of a rapid tail flick was taken as the behavioral endpoint. Each mouse was first tested for baseline latency by immersing its tail in the water and recording the time to response. Mice not responding within 2 secs were excluded from further testing. Responsive mice were then s.c. administered the test compound and tested for antinociception at 30 min, 60 min, 90 min, and 120 min time points afterward. Antinociception was calculated using the following formula: percentage of antinociception=100×(test latency−control latency)/(20−control latency).
The following new compounds were also made and tested to determine the half maximal possible effective dose, or ED50 (mg/kg), in mice, using one of: the warm water tail-flick test as in Table II, spared nerve injury, chronic constriction injury, or Complete Freund's adjuvant induced inflammatory pain. The symbols in the last column are: + indicates ED 50>50 mg/kg; ++ indicates ED 50 is less than or equal to 30 mg/kg.

[1] = half maximal effective dose in mice, using one of: warm water tail-flick test, spared nerve injury, chronic constriction injury, or Complete Freund's adjuvant induced inflammatory pain (not stated which per compound), read-out: Biological Activity (ED50)
[2] = sc, 0.5 h, compounds of Table V, s.c., 30 min, 55° C. water, read-out: ED50 (mg/kg) at 30 min on C57BL/6 mice in Warm-water Tail-flick Test (same conditions as Table II)
[3] = sc, 0.5 h, compounds of Table I, s.c., 30 min, 55° C. water, configuration tested as in Table II, read-out: ED50 (mg/kg) at 30 min on C57BL/6 mice in Warm-water Tail-flick Test

Structure (SMILES) | ED50 [1] | also measured
CC(C)(c1ccccn1)N1CC[C@@](CCc2ccc(C#N)cc2)(C(O)(C(F)(F)F)C(F)(F)F)C1 [Compound 119, (R)-4-(2-(3-(1,1,1,3,3,3-hexafluoro-2-hydroxypropan-2-yl)-1-(2-(pyridin-2-yl)propan-2-yl)pyrrolidin-3-yl)ethyl) benzonitrile] | > 50 mg/kg | 
CCOC(C(F)(F)F)(C(F)(F)F)[C@]1(CCc2ccc(C#N)cc2)CCN(C(C)(C)c2ccc(C)nc2)C1 [Compound 6, (R)-4-(2-(3-(2-ethoxy-1,1,1,3,3,3-hexafluoropropan-2-yl)-1-(2-(6-methylpyridin-3-yl)propan-2-yl)pyrrolidin-3-yl)ethyl) benzonitrile] | ≤ 30 mg/kg | 
COc1cccc(C(C)(C)N2CC[C@](CO)(CCc3ccc(C#N)cc3)C2)n1 [Compound 157, (R)-4-(2-(3-(hydroxymethyl)-1-(2-(6-methoxypyridin-2-yl)propan-2-yl)pyrrolidin-3-yl)ethyl) benzonitrile] | ≤ 30 mg/kg | 
CC(C)(c1ccc(C(F)(F)F)nc1)N1CC[C@@](CCc2ccc(C#N)cc2)(C(C)(C)O)C1 [Compound 140, (R)-4-(2-(3-(2-hydroxypropan-2-yl)-1-(2-(6-(trifluoromethyl)pyridin-3-yl)propan-2-yl)pyrrolidin-3-yl)ethyl) benzonitrile] | > 50 mg/kg | 
CC(C)(c1ccc(Cl)cc1)N1CC[C@@](CCc2ccc(S(C)(=O)=O)cc2)(C(O)C(F)(F)F)C1 (single isomer, unassigned) [Compound 222, (R or S)-1-((R)-1-(2-(4-chlorophenyl)propan-2-yl)-3-(4-(methylsulfonyl)phenethyl)pyrrolidin-3-yl)-2,2,2-trifluoroethan-1-ol] | > 50 mg/kg | 
CCOC[C@]1(CCc2ccc(C#N)cc2)CCN(Cc2cccnc2)C1 [Compound 3, (R)-4-(2-(3-(ethoxymethyl)-1-(pyridin-3-ylmethyl)pyrrolidin-3-yl)ethyl) benzonitrile] | ≤ 30 mg/kg | 
CC(C)(c1ccccn1)N1CC[C@](CO)(CCc2cnc3ccccc3n2)C1 [Compound 184, (R)-(1-(2-(pyridin-2-yl)propan-2-yl)-3-(2-(quinoxalin-2-yl)ethyl)pyrrolidin-3-yl)methanol] | > 50 mg/kg | 
COC[C@]1(CCc2ccc(C#N)cc2)CCN(C(C)(C)c2ccccn2)C1 [Compound 59] | > 50 mg/kg | 
CCOCC1(CCc2ccccc2)CCN(Cc2ccc(NC(=O)OC)cc2)CC1 [Compound 24] |  | ED50 [2]: > 50 mg/kg
Cc1ccc(C(C)(C)N2CCC(CCCc3cccs3)(C3CCCO3)C2)cn1 (single isomer, unassigned) [Compound 19] |  | ED50 [3]: ≤ 30 mg/kg
CCOC(C(F)(F)F)(C(F)(F)F)[C@]1(/C=C/c2ccc3nonc3c2)CCN(C(C)(C)c2ccc(C)nc2)C1 [Compound 186, (S,E)-5-(2-(3-(2-ethoxy-1,1,1,3,3,3-hexafluoropropan-2-yl)-1-(2-(6-methylpyridin-3-yl)propan-2-yl)pyrrolidin-3-yl)vinyl)benzo[c] [1,2,5]oxadiazole] | ≤ 30 mg/kg | 
CC(C)(c1ccccn1)N1CC[C@@](CCc2ccc3nonc3c2)(C(O)C(F)(F)F)C1 (single isomer, unassigned) [Compound 176, (R or S)-1-((R)-3-(2-(benzo[c][1,2,5]oxadiazol-5-yl)ethyl)-1-(2-(pyridin-2-yl)propan-2-yl)pyrrolidin-3-yl)-2,2,2-trifluoroethan-1-ol] | > 50 mg/kg | 
Cc1cccc(C(C)(C)N2CC[C@](CO)(CCc3ccc(C#N)cc3)C2)n1 [Compound 144, (R)-4-(2-(3-(hydroxymethyl)-1-(2-(6-methylpyridin-2-yl)propan-2-yl)pyrrolidin-3-yl)ethyl) benzonitrile] | > 50 mg/kg | 
CC(C)(O)[C@@]1(CCc2ccc(C#N)cc2)CCN(C(c2cccnc2)c2cccnc2)C1 [Compound 63] | > 50 mg/kg | 
CC(C)(c1ccccn1)N1CC[C@](CO)(CCc2cccc(C#N)c2)C1 [Compound 127, (R)-3-(2-(3-(hydroxymethyl)-1-(2-(pyridin-2-yl)propan-2-yl)pyrrolidin-3-yl)ethyl) benzonitrile] | > 50 mg/kg | 
Cc1ccc(N(C)N2CC[C@@](CO)(CCc3ccccc3)C2)cn1 [Compound 68] | > 50 mg/kg | 
COC[C@@]1(CCc2ccccc2)CCN(N(C)c2ccc(C)nc2)C1 (single isomer, unassigned) [Compound 69] | > 50 mg/kg | 
CC(C)(c1ccccn1)N1CC[C@](C#N)(CCc2ccc3ccoc3c2)C1 [Compound 180, (R)-3-(2-(benzofuran-6-yl)ethyl)-1-(2-(pyridin-2-yl)propan-2-yl)pyrrolidine-3-carbonitrile] | > 50 mg/kg | 

Structure (SMILES) | ED50 [1] | also measured
CC(C)(c1ccccn1)N1CC[C@@](CCc2ccc(C#N)s2)(C(O)C(F)(F)F)C1 (single isomer, unassigned) [Compound 153, 5-(2-((R)-1-(2-(pyridin-2-yl)propan-2-yl)-3-((R or S)-2,2,2-trifluoro-1-hydroxyethyl)pyrrolidin-3-yl)ethyl)thiophene-2-carbonitrile] |  | Biological Activity (ED50) (half maximal effective dose in mice, using one of: warm water tail-flick test, spared nerve injury, chronic constriction injury, or Complete Freund's adjuvant induced inflammatory pain (not stated which per compound)): + (+ indicates ED 50>50 mg/kg)
CC(C)(c1ccccn1)N1CC[C@@](CCc2ccc3ccoc3c2)(COCc2ccccc2)C1 [Compound 164, (R)-2-(2-(3-(2-(benzofuran-6-yl)ethyl)-3-((benzyloxy)methyl)pyrrolidin-1-yl)propan-2-yl)pyridine] | > 50 mg/kg | 
Cc1ccc(C(C)(C)N2CCC(CCc3ccc(F)s3)(CNS(C)(=O)=O)C2)cn1 (single isomer, unassigned) [Compound 313] |  | ED50 [3]: ≤ 30 mg/kg
CC(C)(c1ccccn1)N1CC[C@](CO)(CCc2ccc(F)c(F)c2)C1 [Compound 146, (R)-(3-(3,4-difluorophenethyl)-1-(2-(pyridin-2-yl)propan-2-yl)pyrrolidin-3-yl)methanol] | > 50 mg/kg | 
CCOC(C(F)(F)F)(C(F)(F)F)[C@]1(CCc2ccc(C#N)cc2)CCN(Cc2ccc(C)nc2)C1 [Compound 8, (R)-4-(2-(3-(2-ethoxy-1,1,1,3,3,3-hexafluoropropan-2-yl)-1-((6-methylpyridin-3-yl)methyl)pyrrolidin-3-yl)ethyl) benzonitrile] | > 50 mg/kg | 
CCOC(C(F)(F)F)(C(F)(F)F)[C@]1(/C=C/c2cnc3ccccc3n2)CCN(C(C)(C)c2ccc(C)nc2)C1 [Compound 187, (S,E)-2-(2-(3-(2-ethoxy-1,1,1,3,3,3-hexafluoropropan-2-yl)-1-(2-(6-methylpyridin-3-yl)propan-2-yl)pyrrolidin-3-yl)vinyl)quinoxaline] | > 50 mg/kg | 
CC(C)(c1ccccn1)N1CC[C@@](CCc2ccc3nonc3c2)(CS(C)(=O)=O)C1 [Compound 169, (R)-5-(2-(3-((methylsulfonyl)methyl)-1-(2-(pyridin-2-yl)propan-2-yl)pyrrolidin-3-yl)ethyl)benzo[c] [1,2,5]oxadiazole] | > 50 mg/kg | 
N#Cc1ccc(CC[C@@]2(C3OCC3(F)F)CCN(Cc3ccc(Cl)cc3)C2)cc1 (single isomer, unassigned) [Compound 199, 4-(2-((R)-1-(4-chlorobenzyl)-3-((R or S)-3,3-difluorooxetan-2-yl)pyrrolidin-3-yl)ethyl) benzonitrile] | ≤ 30 mg/kg | 
CC(O)[C@]1(CCc2ccc(C#N)cc2)CCN(C(C)(C)c2ccc(C(F)(F)F)nc2)C1 (single isomer, unassigned) [Compound 214, 4-(2-((R)-3-((R or S)-1-hydroxyethyl)-1-(2-(6-(trifluoromethyl)pyridin-3-yl)propan-2-yl)pyrrolidin-3-yl)ethyl) benzonitrile] | ≤ 30 mg/kg | 
COc1ccc(CN2CC[C@@](CCc3ccc(C#N)cc3)(C(O)C(F)(F)F)C2)cn1 (single isomer, unassigned) [Compound 70] | > 50 mg/kg | 
CC(C)(c1ccc(S(C)(=O)=O)cc1)N1CC[C@@](CCc2ccc(F)cc2)(C(O)C(F)(F)F)C1 (single isomer, unassigned) [Compound 50] | > 50 mg/kg | 
CC(C)(c1ccccn1)N1CC[C@@](CCc2cccc(C#N)c2)(COCc2ccccc2)C1 [Compound 125, (R)-3-(2-(3-((benzyloxy)methyl)-1-(2-(pyridin-2-yl)propan-2-yl)pyrrolidin-3-yl)ethyl) benzonitrile] | > 50 mg/kg | 
Cc1ccc(C(C)(C)N2CC[C@@](CCc3ccc(F)cc3)(CS(C)(=O)=O)C2)cn1 [Compound 16, (R)-5-(2-(3-(4-fluorophenethyl)-3-((methylsulfonyl)methyl)pyrrolidin-1-yl)propan-2-yl)-2-methylpyridine] | ≤ 30 mg/kg | 
CC(C)(c1ccccc1)N1CC[C@](CCc2ccc(S(C)(=O)=O)cc2)(C(O)C(F)(F)F)C1 (single isomer, unassigned) [Compound 213, (R or S)-2,2,2-trifluoro-1-((S)-3-(4-(methylsulfonyl)phenethyl)-1-(2-phenylpropan-2-yl)pyrrolidin-3-yl)ethan-1-ol] | ≤ 30 mg/kg | 
CCOCC1(CCc2ccccc2)CCN(C(C)(C)c2ccc(-c3cn[nH]n3)cc2)CC1 [Compound 5] |  | ED50 [2]: ≤ 30 mg/kg
CC(C)(c1ccccn1)N1CC[C@](CO)(CCc2ccc(C#N)cn2)C1 [Compound 114, (R)-6-(2-(3-(hydroxymethyl)-1-(2-(pyridin-2-yl)propan-2-yl)pyrrolidin-3-yl)ethyl) nicotinonitrile] | > 50 mg/kg | 
COC[C@@]1(CCc2ccc(S(C)(=O)=O)cc2)CCN(C(C)(C)c2ccc(Cl)cn2)C1 [Compound 45] | > 50 mg/kg | 
